Assay results taken from US6610489B2, “Pharmacogenomics and identification of drug targets by reconstruction of signal transduction pathways based on sequences of accessible regions” (Sangamo BioSciences, Inc., priority 2000, dated 2003).

Key:
[1] = system: p16 CpG island sequences associated with acetylated histone H3 in HCT15 cells; assay: Chromatin immunoprecipitation with anti-acetylated histone H3 antibody, real-time quantitative PCR (Taqman); format: cell-based, human; conditions: HCT15 cells treated with 2 μM 5-azacytidine during three-day growth, compared to untreated cells; VEGF gene region as control sequence
Excerpt: In this example, chromatin immunoprecipitation (ChIP) was used to enrich a population of DNA fragments comprising regulatory sequences for the p16 tumor suppressor gene, by virtue of their association with acetylated histone H3. A CpG island is located in the p16 gene (GenBank Accession No. AF022809), between about 30 nucleotide pairs upstream, and about 590 nucleotide pairs downstream of the transcriptional startsite identified by Hara et al. (1996) Mol. Cell. Biol. 16:859-867. One form of regulation of genes associated with CpG islands is through methylation of C residues within the CpG island. […]
Untreated and 5-azacytidine-treated HCT15 cells were analyzed by chromatin immunoprecipitation to test for a specific association of acetylated H3 with unmethylated (i.e., active) CpG island sequences. […] Then, in both portions, formaldehyde crosslinks were reversed, DNA was purified, and the purified DNA was analyzed by means of a real-time quantitative PCR assay, known colloquially as “Taqman®.” The DNA was analyzed for the relative proportion of two sequences: (1) a region adjacent to the CpG island located in the 5′-untranslated region of the p16 gene (see above), and (2) a portion of the VEGF gene corresponding to the region from 2324 to 2246 nucleotide pairs upstream of the transcription initiation site.

p16 gene = conditions: HCT15 cells, in which the p16 CpG island is methylated and the p16 gene is inactive; cited from earlier work

## Nc1ncn([C@@H]2O[C@H](CO)[C@@H](O)[C@H]2O)c(=O)n1 [5-azacytidine]
[1]
  enrichment of p16 CpG island sequences associated with acetylated H3: approximately 10 fold
p16 gene
  p16 transcription: activation of p16 transcription
